Assay results taken from patent publication US9133157B2, “HIV protease inhibitors” (Merck Canada Inc., priority 2011, dated 2015).

Biological target: WT HIV-1 protease (Human immunodeficiency virus type 1 group M subtype B (isolate HXB2) (HIV-1), UniProt P04585)
Experiment: Assay for inhibition of microbial expressed HIV protease (Procedure A, peptide substrate, HPLC fluorescence detection)
Format: biochemical
Details: WT HIV-1 protease 10 pM, substrate 400 micromolar, pH 5.5, 30 min preincubation, 1 hour at 30° C.; read-out: Enzyme inhibition IC50
Procedure: The inhibition of WT HIV-1 protease was studied using the reaction of the protease (expressed in Eschericia coli) with a peptide substrate [Val-Ser-Gln-Asn-(betanaphthyl)Ala-Pro-Ile-Val (SEQ ID NO:1)]. Compounds were tested using Procedure A. In Procedure A, the test compound was first preincubated with the enzyme in assay buffer (50 mM sodium acetate, pH 5.5, 100 mM NaCl, and 0.1% BSA) for 30 minutes at room temperature. Substrate was then added to 400 micromolar in a total volume of 80 microliters containing 10 picomolar HIV-1 protease and the reaction was incubated for 1 hour at 30° C. The reaction was quenched with the addition of 120 microliters of 10% phosphoric acid. The product formation was determined after separation of product and substrate on a Zorbax Eclipse XDB-C18 column (Agilent Technologies, Santa Clara, Calif.) connected to an Agilent 1100 high performance liquid chromatography system with fluorescence detection (excitation 270 nanometer and emission 330 nanometer).

## COC(=O)N[C@H](C(=O)N[C@@H](C)c1ccc([C@@H](CO)N(CC(C)C)S(=O)(=O)c2ccc(N)cc2)s1)C(c1ccccc1)c1ccccc1 [Example 76, N-[(1S)-1-{5-[(1R)-1-{[(4-aminophenyl)sulfonyl](2-methylpropyl)amino}-2-hydroxyethyl]thiophen-2-yl}ethyl]-Nα-(methoxycarbonyl)-β-phenyl-L-phenylalaninamide]
  IC50: 11.8 nM

## COC(=O)N[C@H](C(=O)N[C@H](c1ccc([C@@H](CO)N(C(C)C)S(=O)(=O)c2ccc(N)cc2)s1)C(F)(F)F)C(c1ccccc1)c1ccccc1 [Example 77, N-[(1S)-1-{5-[(1R)-1-{[(4-aminophenyl)sulfonyl](propan-2-yl)amino}-2-hydroxyethyl]thiophen-2-yl}-2,2,2-trifluoroethyl]-Nα-(methoxycarbonyl)-β-phenyl-L-phenylalaninamide]
  IC50: 23 nM

## COC(=O)N[C@H](C(=O)N[C@H](c1ccc([C@@H](CO)N(C(C)C)S(=O)(=O)c2ccc3[nH]ccc3c2)s1)C(F)(F)F)C(c1ccccc1)c1ccccc1 [Example 78, Nα-(methoxycarbonyl)-β-phenyl-N-[(1S)-2,2,2-trifluoro-1-(5-{(1R)-2-hydroxy-1-[(1H-indol-5-ylsulfonyl)(propan-2-yl)amino]ethyl}thiophen-2-yl)ethyl]-L-phenylalaninamide]
  IC50: 66.1 nM

## COC(=O)N[C@H](C(=O)N[C@H](c1ccc([C@@H](CO)N(C(C)C)S(=O)(=O)c2ccc3cc[nH]c3c2)s1)C(F)(F)F)C(c1ccccc1)c1ccccc1 [Example 79, Nα-(methoxycarbonyl)-β-phenyl-N-[(1S)-2,2,2-trifluoro-1-(5-{(1R)-2-hydroxy-1-[(1H-indol-6-ylsulfonyl)(propan-2-yl)amino]ethyl}thiophen-2-yl)ethyl]-L-phenylalaninamide]
  IC50: 12.5 nM

## COC(=O)N[C@H](C(=O)N[C@H](c1ccc([C@@H](CO)N(C(C)C)S(=O)(=O)c2ccc(N)c(F)c2)s1)C(F)(F)F)C(c1ccccc1)c1ccccc1 [Example 80, N-[(1S)-1-{5-[(1R)-1-{[(4-amino-3-fluorophenyl)sulfonyl](propan-2-yl)amino}-2-hydroxyethyl]thiophen-2-yl}-2,2,2-trifluoroethyl]-Nα-(methoxycarbonyl)-β-phenyl-L-phenylalaninamide]
  IC50: 30.5 nM

## COC(=O)N[C@H](C(=O)N[C@H](c1ccc([C@@H](CO)N(C(C)C)S(=O)(=O)c2ccc3cn[nH]c3c2)s1)C(F)(F)F)C(c1ccccc1)c1ccccc1 [Example 81, Nα-(methoxycarbonyl)-β-phenyl-N-[(1S)-2,2,2-trifluoro-1-(5-{(1R)-2-hydroxy-1-[(1H-indazol-6-ylsulfonyl)(propan-2-yl)amino]ethyl}thiophen-2-yl)ethyl]-L-phenylalaninamide]
  IC50: 74.1 nM

## COC(=O)N[C@H](C(=O)N[C@H](c1ccc([C@@H](CO)N(CCC(C)C)S(=O)(=O)c2ccc(N)cc2)s1)C(F)(F)F)C(c1ccccc1)c1ccccc1 [Example 83, N-[(1S)-1-{5-[(1R)-1-{[(4-aminophenyl)sulfonyl](3-methylbutyl)amino}-2-hydroxyethyl]thiophen-2-yl}-2,2,2-trifluoroethyl]-Nα-(methoxycarbonyl)-β-phenyl-L-phenylalaninamide]
  IC50: 0.3 nM

## COC(=O)N[C@H](C(=O)N[C@H](c1ccc([C@@H](CO)N(CC2CC(F)(F)C2)S(=O)(=O)c2ccc(N)cc2)s1)C(F)(F)F)C(c1ccccc1)c1ccccc1 [Example 84, N-[(1S)-1-{5-[(1R)-1-{[(4-aminophenyl)sulfonyl][(3,3-difluorocyclobutyl)methyl]amino}-2-hydroxyethyl]thiophen-2-yl}-2,2,2-trifluoroethyl]-Nα-(methoxycarbonyl)-β-phenyl-L-phenylalaninamide]
  IC50: 0.75 nM

## COC(=O)N[C@H](C(=O)N[C@H](c1ccc([C@@H](CO)N(CCC(F)(F)F)S(=O)(=O)c2ccc(N)cc2)s1)C(F)(F)F)C(c1ccccc1)c1ccccc1 [Example 85, N-[(1S)-1-{5-[(1R)-1-{[(4-aminophenyl)sulfonyl](3,3,3-trifluoropropyl)amino}-2-hydroxyethyl]thiophen-2-yl}-2,2,2-trifluoroethyl]-Nα-(methoxycarbonyl)-β-phenyl-L-phenylalaninamide]
  IC50: 0.33 nM

## COC(=O)N[C@H](C(=O)N[C@H](c1ccc([C@@H](CO)N(CCC2CC2)S(=O)(=O)c2ccc(N)cc2)s1)C(F)(F)F)C(c1ccccc1)c1ccccc1 [Example 86]
  IC50: 0.34 nM

## COC(=O)N[C@H](C(=O)N[C@H](c1ccc([C@@H](CO)NS(=O)(=O)c2ccc(N)cc2)s1)C(F)(F)F)C(c1ccccc1)c1ccccc1 [Example 87, N-[(1S)-1-{5-[(1R)-1-{[(4-aminophenyl)sulfonyl]amino}-2-hydroxyethyl]thiophen-2-yl}-2,2,2-trifluoroethyl]-Nα-(methoxycarbonyl)-β-phenyl-L-phenylalaninamide]
  IC50: 194 nM

## CCCCN([C@H](CO)c1ccc([C@@H](NC(=O)[C@@H](NC(=O)OC)C(c2ccccc2)c2ccccc2)C(F)(F)F)s1)S(=O)(=O)c1ccc(N)cc1 [Example 88, N-[(1S)-1-{5-[(1R)-1-{[(4-aminophenyl)sulfonyl](butyl)amino}-2-hydroxyethyl]thiophen-2-yl}-2,2,2-trifluoroethyl]-Nα-(methoxycarbonyl)-β-phenyl-L-phenylalaninamide]
  IC50: 0.33 nM

## COC(=O)N[C@H](C(=O)N[C@H](c1ccc([C@@H](CO)N(CCc2ccccc2)S(=O)(=O)c2ccc(N)cc2)s1)C(F)(F)F)C(c1ccccc1)c1ccccc1 [Example 89, N-[(1S)-1-{5-[(1R)-1-{[(4-aminophenyl)sulfonyl](2-phenylethyl)amino}-2-hydroxyethyl]thiophen-2-yl}-2,2,2-trifluoroethyl]-Nα-(methoxycarbonyl)-β-phenyl-L-phenylalaninamide]
  IC50: 2.6 nM

## COC(=O)N[C@H](C(=O)N[C@H](c1ccc([C@@H](CO)N(CCC(C)(C)C)S(=O)(=O)c2ccc(-c3cnco3)cc2)s1)C(F)(F)F)C(c1ccccc1)c1ccccc1 [Example 90, N-[(1S)-1-(5-{(1R)-1-[(3,3-dimethylbutyl){[4-(1,3-oxazol-5-yl)phenyl]sulfonyl}amino]-2-hydroxyethyl}thiophen-2-yl)-2,2,2-trifluoroethyl]-Nα-(methoxycarbonyl)43-phenyl-L-phenylalaninamide]
  IC50: 25.9 nM

## COC(=O)N[C@H](C(=O)N[C@H](c1ccc([C@@H](CO)N(CCC(C)(C)C)S(=O)(=O)c2ccc3scnc3c2)s1)C(F)(F)F)C(c1ccccc1)c1ccccc1 [Example 91, N-[(1S)-1-(5-{(1R)-1-[(1,3-benzothiazol-5-ylsulfonyl)(3,3-dimethylbutyl)amino]-2-hydroxyethyl}thiophen-2-yl)-2,2,2-trifluoroethyl]-Nα-(methoxycarbonyl)-β-phenyl-L-phenylalaninamide]
  IC50: 2.9 nM

## COC(=O)N[C@H](C(=O)N[C@H](c1ccc([C@@H](CO)N(CCC(C)(C)C)S(=O)(=O)c2ccc(-c3ccn(C)n3)cc2)s1)C(F)(F)F)C(c1ccccc1)c1ccccc1 [Example 92]
  IC50: 66.6 nM

## COC(=O)N[C@H](C(=O)N[C@H](c1ccc([C@@H](CO)N(CCC(C)(C)C)S(=O)(=O)c2ccc3[nH]ncc3c2)s1)C(F)(F)F)C(c1ccccc1)c1ccccc1 [Example 93, N-[(1S)-1-(5-{(1R)-1-[(3,3-dimethylbutyl)(1H-indazol-5-ylsulfonyl)amino]-2-hydroxyethyl}thiophen-2-yl)-2,2,2-trifluoroethyl]-Nα-(methoxycarbonyl)-β-phenyl-L-phenylalaninamide]
  IC50: 0.31 nM

## COC(=O)N[C@H](C(=O)N[C@H](c1ccc([C@@H](CO)N(CCC(C)(C)C)S(=O)(=O)c2ccc3cc[nH]c3c2)s1)C(F)(F)F)C(c1ccccc1)c1ccccc1 [Example 94, N-[(1S)-1-(5-{(1R)-1-[(3,3-dimethylbutyl)(1H-indol-6-ylsulfonyl)amino]-2-hydroxyethyl}thiophen-2-yl)-2,2,2-trifluoroethyl]-Nα-(methoxycarbonyl)-β-phenyl-L-phenylalaninamide]
  IC50: 0.09 nM

## COC(=O)N[C@H](C(=O)N[C@H](c1ccc([C@@H](CO)N(CCC(C)(C)C)S(=O)(=O)c2cc3ccccc3s2)s1)C(F)(F)F)C(c1ccccc1)c1ccccc1 [Example 95, N-[(1S)-1-(5-{(1R)-1-[(1-benzothiophen-2-ylsulfonyl)(3,3-dimethylbutyl)amino]-2-hydroxyethyl}thiophen-2-yl)-2,2,2-trifluoroethyl]-Nα-(methoxycarbonyl)-β-phenyl-L-phenylalaninamide]
  IC50: 6.95 nM

## COC(=O)N[C@H](C(=O)N[C@H](c1ccc([C@@H](CO)N(CCC(C)(C)C)S(=O)(=O)c2ccc3ocnc3c2)s1)C(F)(F)F)C(c1ccccc1)c1ccccc1 [Example 96, N-[(1S)-1-(5-{(1R)-1-[(1,3-benzoxazol-5-ylsulfonyl)(3,3-dimethylbutyl)amino]-2-hydroxyethyl}thiophen-2-yl)-2,2,2-trifluoroethyl]-Nα-(methoxycarbonyl)-β-phenyl-L-phenylalaninamide]
  IC50: 1.95 nM

## COC(=O)N[C@H](C(=O)N[C@H](c1ccc([C@@H](CO)N(CCC(C)(C)C)S(=O)(=O)c2ccc(N)c(F)c2)s1)C(F)(F)F)C(c1ccccc1)c1ccccc1 [Example 97, N-[(1S)-1-{5-[(1R)-1-{[(4-amino-3-fluorophenyl)sulfonyl](3,3-dimethylbutyl)amino}-2-hydroxyethyl]thiophen-2-yl}-2,2,2-trifluoroethyl]-Nα-(methoxycarbonyl)-β-phenyl-L-phenylalaninamide]
  IC50: 1.23 nM
